From patent publication US20100216722A1, “USE OF THE PEPTIDE PRO-GLY-THR-CYS-GLU-ILE-CYS-ALA-TYR-ALA-ALA-CYS-THR-GLY-CYS AS A THERAPEUTIC AGENT” (priority 2007, published 2010)
Positions of bridges follow the written chain, without caps; N, C: chain ends. Residues, ends and D or L forms follow the SMILES beside them.

Experiments:
HepG2-2.2.15 cells = test: Cytotoxicity in HepG2-2.2.15 cells (dye uptake cell viability); conditions: HepG2-2.2.15 cells; peptide 10 micrograms per ml; dye uptake assay
HIV-1IIIB = test: HIV-1 antiviral assay (CPE reduction, MTS) in CEM-SS cells; format: cell-based; conditions: peptide 10 micrograms per ml, 6 days post-infection
MRC-5 cells = conditions: human, 6 days
Method: (§2) For cytotxicity testing, MRC-5 cells were seeded at 2,500 cells/well in 96 well plates using growth medium. […] The following day, peptide was added and tested in duplicates. After a 6 days incubation period, cell viability was measured using CellTiter 96 Solution (Promega). Plates were incubated for additional 4 hours at 37° C. Adhesive plate sealers were used in place of lids, the sealed plates were inverted several times to mix the soluble formazan product and the plate was read spectrophotometrically at 490/560 nm with a Molecular Devices Vmax plate reader.

HCMV strain AD169 = test: HCMV plaque reduction assay in MRC-5 cells; conditions: HCMV AD169 in MRC-5 cells; peptide 10 micrograms per ml; 7-10 days
[1] = tested on: hepatitis B virus (HBV) ayw strain; test: HBV replication assay in HepG2-2.2.15 cells (TaqMan PCR of secreted HBV DNA); format: cell-based; conditions: peptide 10 micrograms per ml, six days, HBV DNA in supernatant
A549 cells [2] = test: Propidium iodide cell cycle assay; format: cell-based, human; conditions: peptide 10 micrograms per ml, 24 hours, Propidium iodide FACS
Method: Human A549 cells (carcinomic human alveolar basal epithelial cells) were utilized in the experiments employing the Propidium iodide cell cycle assay. The eukaryotic cell cycle is a series of events that take place in a cell leading to its replication. Propidium iodide is an intercalating agent and a fluorescent molecule that can be used to stain DNA. Cells were incubated for 24 hours with test peptide—10 micrograms per ml—or left untreated. […] The cells were pipetted into 2.5 ml absolute EtOH (final concentration approx. 70%) and incubated on ice for 15 min. Thereafter, cells were pelleted at 1500 rpm for 5 min and resuspended in Propidium iodide solution in PBS. After incubation for 40 min at 37° C., cells were analyzed in the FACS.

[3] = tested on: Human Peripheral Blood Mononuclear Cells (PBMC); test: T cell proliferation assay (PHA, 3H-thymidine); format: cell-based; conditions: peptide 10 micrograms per ml, 3H-thymidine incorporation
Method: (§1) Human Peripheral Blood Mononuclear Cells (PBMC) were obtained from normal human donors. The T cell proliferation was induced by stimulation of the cells with the T cell mitogen phytohemagglutinin (PHA), either in the absence (positive proliferation control), or in the presence of test peptide—10 micrograms per ml—to examine their effects on the T cell proliferating response. 10^5/well PBMC were plated in 96-well microtiter plates and assayed in duplicate with the peptide. Cell cultures were incubated at 37° C. for 3 days in a 5% CO2 incubator and were thereafter pulsed with 1 microCi/well ^3H-thymidine for additional 12 hours of culture. At the end of incubation time, the plates were harvested and the cells counted by liquid scintillation for the incorporation of ^3H-thymidine as a measure of T cell proliferation.

[4] = tested on: Human Peripheral Blood Mononuclear Cells (PBMC); test: B cell proliferation assay (SAC plus Interleukin-2, 3H-thymidine); format: cell-based; conditions: peptide 10 micrograms per ml, 3H-thymidine incorporation
Method: as §1, with “The B” for “The T”, “the B” for “the T”, “mitogen Staphylococcus aureus Cowans I (SAC) plus Interleukin-2,” for “mitogen phytohemagglutinin (PHA),”, “cell” for “cell proliferating”, “of B” for “of T”

RAW 264.7 cells = test: Phagocytosis assay (Fluorescein-labeled Escherichia coli, flow cytometry); format: cell-based, mouse; conditions: peptide 10 micrograms per ml, 30 min before Fluorescein-labeled E. coli
Method: Cells were incubated in 12×75 mm tubes at 37° C. with test peptide—10 micrograms per ml—for 30 min prior to adding Fluorescein-labeled Escherichia coli bacteria as the agent to be ingested. […] The samples were then analyzed by flow cytometry to determine the amount of phagocytosis as a function of brightness (the greater the phagocytic activity, the more fluorescence in the macrophage population). Data are reported as % positive and the mean fluorescence intensity (MFI) of positively stained cells.

A549 cells [5] = test: Apoptosis induction assay (Annexin-5); format: cell-based, human; conditions: apoptosis in A549 cells, peptide 10 micrograms per ml, 24 hours
From the text: Human A549 cells (carcinomic human alveolar basal epithelial cells) were utilized in the experiments employing the Annexin-5 apoptosis assay. Annexin-5 is a member of a highly conserved protein family that binds acidic phospholipids in a calcium-dependent manner. […] Phosphatidylserine is translocated from the inner side of the plasma membrane to the outer layer when cells undergo death by apoptosis or cell necrosis and serves as a signal by which cell destined for death are recognized by phagocytes. Test peptide—10 micrograms per ml—were exposed for 24 hours to the A549 cells before they were analyzed for signs of apoptosis.

A549 cells [6] = test: Apoptosis prevention assay (C2 ceramide, Annexin-5); format: cell-based, human; conditions: A549 cells pretreated 30 min with peptide 10 micrograms per ml, then C2 ceramide
From the text: Human A549 cells (carcinomic human alveolar basal epithelial cells) were utilized in the experiments employing the Annexin-5 apoptosis assay. Annexin-5 is a member of a highly conserved protein family that binds acidic phospholipids in a calcium-dependent manner. […] Phosphatidylserine is translocated from the inner side of the plasma membrane to the outer layer when cells undergo death by apoptosis or cell necrosis and serves as a signal by which cell destined for death are recognized by phagocytes. A549 cells were pretreated for 30 min with test peptide—10 micrograms per ml—followed by the exposure to C2 ceramide. Ceramide mediates cell apoptosis through the activation of the mitogen activating protein kinase (MAPK) and the stress activated kinase (JNK/SAPK). C2 ceramide is a synthetic, membrane soluble analog of ceramide.

[7] = tested on: spleen cells of Ovalbumin-immunized Balb/c mice; test: Th1/Th2 cytokine profiling assay (Ovalbumin-restimulated spleen cells, CBA kit); format: cell-based, mouse; conditions: peptide 10 micrograms per ml; Ovalbumin restimulation; 72 hours
Method: The Balb/c mice (originated in 1923, it is a popular strain and is used in many different research disciplines. […] On day 50, spleens of the mice were harvested (3 weeks after last boost with Ovalbumin). Cells were cultured (2×10^5/well in triplicate) and incubated with culture medium or test peptide—10 micrograms per ml—for 30 min. Thereafter, additional Ovalbumin was added to the cells at 10 micrograms/ml for in vitro restimulation of the cells. 72 hours later, cell supernatants were harvested and assayed using the Becton Dickinson Mouse Th1/Th2 Cytokine CBA Kit. This kit can be used to measure Interleukin-2 (IL-2), Interleukin-4 (IL-4), Interleukin-5 (IL-5), Interferon-γ (IFN-γ), and Tumor Necrosis Factor-α (TNF-α) protein levels in a single sample. The kit performance has been optimized for analysis of physiologically relevant concentrations (pg/ml levels) of specific cytokine proteins in tissue culture supernatants and serum samples.

[8] = tested on: macrophages differentiated from human PBMC; test: TNF alpha production assay (LPS-stimulated macrophages, ELISA); format: cell-based; conditions: peptide 10 micrograms per ml, 30 min before lipopolysaccharide 200 ng/ml, overnight
Method: Human Peripheral Blood Mononuclear Cells (PBMC) were obtained from normal human donors. The macrophages were prepared by adherence of PBMC to the plastic wells of the plates. After 8 days in culture in the presence of recombinant human macrophage-colony stimulating factor at 2 ng/ml, differentiated macrophages were preincubated with test peptide—10 micrograms per ml—for 30 min, followed by in-well stimulation by the addition of lipopolysaccharide at a final concentration of 200 ng/ml. Not stimulated macrophages served as negative background control. After overnight incubation, supernatants from the control and LPS-stimulated cultures were harvested and assayed for TNF alpha production employing a TNF alpha specific ELISA.

[9] = tested on: Primary Human endothelial cells (HUVEC); test: Endothelial cell migration assay; format: cell-based; conditions: peptide 10 micrograms per ml, 22 hours
Method: Endothelial cell migration is a prerequisite for the process of neo-vascularization or angiogenesis which is crucial for on-site recruitment of blood vessel formation. […] Thereafter, designated concentration of test peptide—10 micrograms per ml—was added in duplicate wells. The endothelia were allowed to migrate for 22 hours at 37° C., then, migrated cells were fixed and stained with Hoechst 33342 dye. Images of 3 fields per insert were taken and the number of migrated cells per field were quantified using the ImageProPlus software. Data were analyzed for the average number of the migrated cells and standard deviation of six data points for each treatment condition. Active test peptide against HUVEC migration was determined based on 50% inhibition of migrated cells as compared with the control. Statistic p values were computed using the Student's t-test.

HUVEC = test: Endothelial tube formation assay; format: cell-based, human; conditions: peptide 10 micrograms per ml, 20 hours
Method: The endothelial tube formation assay is based on the ability of endothelial cells to form three-dimensional capillary-like tubular structures when cultured on a gel of basement membrane extract. The endothelial tube formation assay represents a powerful model for studying inhibition and induction of angiogenesis. Pre-labeled HUVEC with Calcein AM were seeded in a 96-well culture plate coated with extracellular metrix (Chemicon international Cat. ECM625) and treated with test peptide—10 micrograms per ml—in full growth medium. Positive control wes vehicle only. The endothelial cells were allowed to form tubes foe 20 hours and were then examined under an inverted fluorescent microscope. Duplicate wells for each treatment were photographed and quantitatively analyzed for an average tubule length using image analysis software ImageProPlus. Raw data were expressed as average tubule lengths in pixels±standard deviation. Statistic p values were computed using the Student's t-test.

in vitro [10] = conditions: human, CEM-SS cells
in vitro [11] = conditions: human, MRC-5 cells (embryonal lung fibroblasts)
Method: as §2

[12] = Cytotoxicity in HepG2-2.2.15 cells (dye uptake cell viability); conditions: human

## Nc1ccn([C@@H]2CS[C@H](CO)O2)c(=O)n1 [3TC, Lamivudine, reference compound]
HepG2-2.2.15 cells
  % Cell viability: 95.8%

## Cc1cn([C@H]2C[C@H](N=[N+]=[N-])[C@@H](CO)O2)c(=O)[nH]c1=O [AZT, zidovudine]
HIV-1IIIB
  % CPE reduction in HIV-1 infected CEM-SS cells: 99%

## Nc1nc(O)c2ncn(COC(CO)CO)c2n1 [Ganciclovir, reference compound]
MRC-5 cells
  % Cell viability: 100%
HCMV strain AD169
  % plaque reduction: 100%

## CC[C@H](C)[C@@H]1NC(=O)[C@H](CCC(=O)O)NC(=O)[C@@H](NC(=O)[C@@H](NC(=O)CNC(=O)[C@@H]2CCCN2)[C@@H](C)O)CSSC[C@@H]2NC(=O)[C@H](C)NC(=O)[C@H](C)NC(=O)[C@H](Cc3ccc(O)cc3)NC(=O)[C@H](C)NC(=O)[C@H](CSSC[C@@H](C(=O)O)NC(=O)CNC(=O)[C@H]([C@@H](C)O)NC2=O)NC1=O [Guanylin, Pro-Gly-Thr-Cys-Glu-Ile-Cys-Ala-Tyr-Ala-Ala-Cys-Thr-Gly-Cys-OH] (H-PGTCEICAYAACTGC-OH; disulfide 4-12, 7-15 (inferred); N-terminus assumed)
HIV-1IIIB
  % CPE reduction in HIV-1 infected CEM-SS cells: 13.2%
[1]
  % inhibition of HBV replication in HEP G2 cells: 21.7%
A549 cells [2]
  Cell cycle analysis G0/G1: 58.7
  Cell cycle analysis G2/M: 9.8
  Cell cycle analysis S: 31.5
[3]
  % of PHA induced control: 93.7%
[4]
  % of SAC/IL2 induced control: 97.0%
RAW 264.7 cells
  % of control phagocytosis: 105.9%
A549 cells [5]
  % of induction: 1.5%
A549 cells [6]
  % prevention of ceramide induced apoptosis: 0.0%
[7]
  IFNγ spleen cells; TH1 response (% of control): 62.0 % of control
  IL-2 spleen cells (% of control): 135.5 % of control
  IL-4 spleen cells; TH2 response (% of control): 143.8 % of control
  IL-5 spleen cells; TH2 response (% of control): 82.6 % of control
  TNF-a spleen cells; TH1 response (% of control): 108.5 % of control
[8]
  % of LPS induction: 96.6%
[9]
  % inhibition of migration: 24.0%
HUVEC
  % inhibition of tube formation: 10.0%
In vitro [10]
  viability at 10 micrograms per ml: 100%
In vitro [11]
  viability at 144 h: 100%
HCMV strain AD169
  % plaque reduction: 0.0%
[12]
  viability at 144 h, 10 micrograms per ml: 91.2%

## CC(C)(C)NC(=O)[C@@H]1CN(Cc2cccnc2)CCN1C[C@@H](O)C[C@@H](Cc1ccccc1)C(=O)N[C@H]1c2ccccc2C[C@H]1O [Indinavir, indinavir]
HIV-1IIIB
  % CPE reduction in HIV-1 infected CEM-SS cells: 100%
